Laboratory results as given in patent publication US20080207685A1, “Heterocyclic Compounds As Modulators Of Peroxisome Proliferator Activated Receptors, Useful For The Treatment And/Or Prevention Of Disorders Modulated By A Ppar” (Eli Lilly And Company, priority 2003, published 2008).

Tested on: HuapoAI transgenic mice
Experiment: Evaluation of triglyceride and cholesterol level in HuapoAI transgenic mice
Assay type: in vivo
Settings: 100 mg/kg oral gavage daily for 7 days; vehicle about 140 to 180 mg/dl
Description: Five to six week old male mice, transgenic for human apoAI [C57B1/6-tgn(apoa1)1rub, Jackson Laboratory, Bar Harbor, Me.] are housed five per cage (10″×20″×8″ with aspen chip bedding) with food (Purina 5001) and water available at all times. After an acclimation period of 2 weeks, animals are individually identified by ear notches, weighed and assigned to groups based on body weight. Beginning the following morning, mice are dosed daily by oral gavage for 7 days using a 20 gauge, 1½″ curved disposable feeding needle. Treatments are test compounds (30 mg/kg), a positive control (fenofibrate, 100 mg/kg) or vehicle [1% carboxymethylcellulose (w/v)/0.25% Tween80 (w/v); 0.2 ml/mouse]. […]
The animals dosed with vehicle have average triglycerides values of about 60 to 80 mg/dl, which are reduced by the positive control fenofibrate (33-58 mg/dl with a mean reduction of 37%). […] Test compounds evaluated in terms of percent increase in the area under the curve. […]
Glucose is measured […] by using commercially purchased reagents (Sigma #315-500). […] The absorbance of the dye produced is linearly related to the analyte in the sample. […] Standards (Sigma #339-11, Sigma #16-11, and Sigma #CCO0534 for glucose, triglycerides and total cholesterol, respectively), quality control plasma (Sigma #A2034), and samples (2 or 5 μl/well) are measured in duplicate using 200 μl of reagent. […]

Compound: CC(C)OC(=O)C(C)(C)Oc1ccc(C(=O)c2ccc(Cl)cc2)cc1 [fenofibrate]
- average total serum cholesterol values: 190 to 280 mg/dL
